{"source": "patent US5866540A", "about": "“Cyclic adhesion inhibitors” (Merck Patent Gesellschaft mit Beschrankter Haftung, priority 1995, dated 1999)", "key": {"αIIbβ3": {"molecular_target": "αIIbβ3 (Homo sapiens, UniProt P05106+P08514)", "test": "Solid-phase receptor binding ELISA: competition with biotinylated fibrinogen on coated integrin receptor", "conditions": "ligand biotinylated fibrinogen 1 μg/ml; receptor coated at 1 μg/ml; 3 h at 30° C.; triplicates", "procedure": "(§1) The effect was found by using the method of J. W. Smith, Z. M. Ruggei, T. J. Kunicki and D. A. Cheesh descibed in J. Biol. Chem. 265, 12 267-12 271 (1990).\n(§2) Details of the method are as follows:\n(§3) A ninety six well untreated flat bottom plate was coated with 100 μl/well of 1 μg/ml receptor (αIIβe; αVβ3) in coating buffer and incubated on a shaker at 4° C. overnight. The plate was washed 1× with binding buffer and then blocked with blocking buffer (100 μl/well for two hours at 30° C. After an additional washing with binding buffer, the biotinylated ligand and the competitor were added.\n(§4) The ligand fibrinogen was used at a final concentration of 1 μg/ml. The competitor was added at increasing concentrations. Both ligand and competitor were added in volume of 50 μl/well at 2× of the final concentration diluted in binding buffer.\n(§5) The plate was covered and incubated for three hours at 30° C. To remove unbound material the plate was washed 3× with binding buffer 100 μl/well.\n(§6) Goat anti biotin antibody alkaline phosphatase conjugate (1:2000 dilution) in binding buffer was added (100 μl/well) and the plate was incubated for one hour at 30° C.\n(§7) The plate was washed 3× with binding buffer, the substrate solution was added and developed in the dark at room temperature for 1-5 minutes.\n(§8) The reaction was stopped by addition of 100 μl/well of 0.4M NaOH and read in the ELISA reader at 405 nm.\n(§9) All points were run in triplicates."}, "αvβ3": {"molecular_target": "αvβ3 (Homo sapiens, UniProt P05106+P06756)", "test": "Solid-phase receptor binding ELISA: competition with biotinylated fibrinogen on coated integrin receptor", "conditions": "ligand biotinylated fibrinogen 1 μg/ml; receptor coated at 1 μg/ml; 3 h at 30° C.; triplicates", "procedure": "as §1, §2, §3, §4, §5, §6, §7, §8, §9"}}, "note": "Where a SMILES comes first, the peptide text is derived from it. [ ]: non-standard residue; d: D form."}
{"smiles": "CC(C)[C@@H]1NC(=O)[C@@H](Cc2ccccc2)NC(=O)[C@H](CC(=O)O)NC(=O)[C@H](C)NC(=O)[C@H](CCCN=C(N)N)NC1=O", "note": "[cyclo(--Arg--Ala--Asp--D--Phe--Val), cyclo(-Arg-Ala-Asp-D-Phe-Val)] (cyclo(AD[dF]VR))", "values": [{"measurement": "IC50", "setting": "αIIbβ3", "value": "> 100", "unit": "µM"}, {"measurement": "IC50", "setting": "αvβ3", "value": 0.77, "unit": "µM"}]}
{"smiles": "CC(C)[C@@H]1NC(=O)[C@H](Cc2ccccc2)NC(=O)[C@H](CC(=O)O)NC(=O)CNC(=O)[C@@H](CCCNC(=N)N)NC(=O)CNC1=O", "note": "[cyclo(--D--Arg--Gly--Asp--Phe--Val--Gly), cyclo(-D-Arg-Gly-Asp-Phe-Val-Gly)] (cyclo(G[dR]GDFV))", "values": [{"measurement": "IC50", "setting": "αIIbβ3", "value": 20.5, "unit": "µM"}, {"measurement": "IC50", "setting": "αvβ3", "value": 1.52, "unit": "µM"}]}
{"smiles": "C[C@@H]1NC(=O)[C@H]2CCCN2C(=O)[C@H](Cc2ccccc2)NC(=O)[C@H](CC(=O)O)NC(=O)CNC(=O)[C@H](CCCNC(=N)N)NC1=O", "note": "[cyclo(--Arg--Gly--Asp--Phe--D--Pro--Ala), cyclo(-Arg-Gly-Asp-Phe-D-Pro-Ala)] (cyclo(RGDF[dP]A))", "values": [{"measurement": "IC50", "setting": "αIIbβ3", "value": 0.74, "unit": "µM"}, {"measurement": "IC50", "setting": "αvβ3", "value": 0.37, "unit": "µM"}]}
{"smiles": "CC(C)[C@@H]1NC(=O)[C@@H](Cc2ccccc2)NC(=O)[C@H](CC(=O)O)NC(=O)CNC(=O)[C@H](CCCNC(=N)N)NC(=O)CNC1=O", "note": "[cyclo(--Arg--Gly--Asp--D--Phe--Val--Gly), cyclo(-Arg-Gly-Asp-D-Phe-Val-Gly)] (cyclo(RGD[dF]VG))", "values": [{"measurement": "IC50", "setting": "αIIbβ3", "value": 0.13, "unit": "µM"}, {"measurement": "IC50", "setting": "αvβ3", "value": 0.62, "unit": "µM"}]}
{"smiles": "C[C@@H]1NC(=O)[C@@H]2CCCN2C(=O)[C@H](Cc2ccccc2)NC(=O)[C@H](CC(=O)O)NC(=O)CNC(=O)[C@H](CCCNC(=N)N)NC1=O", "note": "[cyclo(--Arg--Gly--Asp--Phe--Pro--Ala), cyclo(-Arg-Gly-Asp-Phe-Pro-Ala)] (cyclo(RGDFPA))", "values": [{"measurement": "IC50", "setting": "αIIbβ3", "value": 0.62, "unit": "µM"}, {"measurement": "IC50", "setting": "αvβ3", "value": 0.48, "unit": "µM"}]}
{"smiles": "CC(C)[C@@H]1NC(=O)[C@H](Cc2ccccc2)NC(=O)[C@H](CC(=O)O)NC(=O)[C@@H](C)NC(=O)[C@H](CCCNC(=N)N)NC1=O", "note": "[cyclo(--Arg--D--Ala--Asp--Phe--Val), cyclo(-Arg-D-Ala-Asp-Phe-Val)] (cyclo(R[dA]DFV))", "values": [{"measurement": "IC50", "setting": "αIIbβ3", "value": "> 100", "unit": "µM"}, {"measurement": "IC50", "setting": "αvβ3", "value": 52, "unit": "µM"}]}
{"smiles": "CC(C)C[C@@H]1NC(=O)[C@@H](Cc2ccccc2)NC(=O)[C@H](CC(=O)O)NC(=O)CNC(=O)[C@H](CCCNC(=N)N)NC(=O)[C@H](C)NC1=O", "note": "[cyclo(--Arg--Gly--Asp--D--Phe--Leu--Ala), cyclo(-Arg-Gly-Asp-D-Phe-Leu-Ala)] (cyclo(ARGD[dF]L))", "values": [{"measurement": "IC50", "setting": "αIIbβ3", "value": 0.76, "unit": "µM"}, {"measurement": "IC50", "setting": "αvβ3", "value": 1.1, "unit": "µM"}]}
{"smiles": "CC(C)[C@@H]1NC(=O)[C@H](Cc2ccccc2)NC(=O)[C@H](CC(=O)O)NC(=O)CNC(=O)[C@H](CCCNC(=N)N)NC(=O)[C@@H](C)NC1=O", "note": "[cyclo(--Arg--Gly--Asp--Phe--Val--D--Ala), cyclo(-Arg-Gly-Asp-Phe-Val-D-Ala)] (cyclo(RGDFV[dA]))", "values": [{"measurement": "IC50", "setting": "αIIbβ3", "value": 1.5, "unit": "µM"}, {"measurement": "IC50", "setting": "αvβ3", "value": 0.25, "unit": "µM"}]}
{"smiles": "CC(C)[C@@H]1NC(=O)[C@H](Cc2ccccc2)NC(=O)[C@H](CC(=O)O)NC(=O)CNC(=O)[C@@H](CCCNC(=N)N)NC(=O)[C@H](C)NC1=O", "note": "[cyclo(--D--Arg--Gly--Asp--Phe--Val--Ala), cyclo(-D-Arg-Gly-Asp-Phe-Val-Ala)] (cyclo([dR]GDFVA))", "values": [{"measurement": "IC50", "setting": "αIIbβ3", "value": 22, "unit": "µM"}, {"measurement": "IC50", "setting": "αvβ3", "value": 4.5, "unit": "µM"}]}
{"smiles": "CC(C)C[C@@H]1NC(=O)[C@@H](Cc2ccccc2)NC(=O)[C@H](CC(=O)O)NC(=O)CNC(=O)[C@H](CCCNC(=N)N)NC(=O)CNC1=O", "note": "[cyclo(--Arg--Gly--Asp--D--Phe--Leu--Gly), cyclo(-Arg-Gly-Asp-D-Phe-Leu-Gly)] (cyclo(GRGD[dF]L))", "values": [{"measurement": "IC50", "setting": "αIIbβ3", "value": 0.06, "unit": "µM"}, {"measurement": "IC50", "setting": "αvβ3", "value": 0.54, "unit": "µM"}]}
{"smiles": "N=C(N)NCCC[C@@H]1NC(=O)CNC(=O)[C@H]2CCCN2C(=O)[C@H](Cc2ccccc2)NC(=O)[C@H](CC(=O)O)NC(=O)CNC1=O", "note": "[cyclo(--Arg--Gly--Asp--Phe--D--Pro--Gly)] (cyclo(RGDF[dP]G))", "values": [{"measurement": "IC50", "setting": "αIIbβ3", "value": 1.5, "unit": "µM"}, {"measurement": "IC50", "setting": "αvβ3", "value": 1.06, "unit": "µM"}]}
{"smiles": "N=C(N)NCCC[C@@H]1NC(=O)CNC(=O)[C@@H]2CCCN2C(=O)[C@H](Cc2ccccc2)NC(=O)[C@H](CC(=O)O)NC(=O)CNC1=O", "note": "[cyclo(--Arg--Gly--Asp--Phe--Pro--Gly), cyclo(-Arg-Gly-Asp-Phe-Pro-Gly)] (cyclo(RGDFPG))", "values": [{"measurement": "IC50", "setting": "αIIbβ3", "value": 1.53, "unit": "µM"}, {"measurement": "IC50", "setting": "αvβ3", "value": 0.16, "unit": "µM"}]}
{"smiles": "CC(C)[C@@H]1NC(=O)[C@@H](Cc2ccccc2)NC(=O)[C@H](CC(=O)O)NC(=O)CNC(=O)[C@H](CCCNC(=N)N)NC(=O)[C@H](C)NC1=O", "note": "[cyclo(--Arg--Gly--Asp--D--Phe--Val--Ala), cyclo(-Arg-Gly-Asp-D-Phe-Val-Ala)] (cyclo(RGD[dF]VA))", "values": [{"measurement": "IC50", "setting": "αIIbβ3", "value": 0.32, "unit": "µM"}, {"measurement": "IC50", "setting": "αvβ3", "value": 0.9, "unit": "µM"}]}
{"smiles": "CC(C)C[C@@H]1NC(=O)[C@H](Cc2ccccc2)NC(=O)[C@H](CC(=O)O)NC(=O)CNC(=O)[C@H](CCCNC(=N)N)NC(=O)[C@@H](C)NC1=O", "note": "[cyclo(--Arg--Gly--Asp--Phe--Leu--D--Ala), cyclo(-Arg-Gly-Asp-Phe-Leu-D-Ala)] (cyclo(RGDFL[dA]))", "values": [{"measurement": "IC50", "setting": "αIIbβ3", "value": 0.76, "unit": "µM"}, {"measurement": "IC50", "setting": "αvβ3", "value": 0.31, "unit": "µM"}]}
